BindingDB's records for doi:10.1016/j.bmcl.2012.03.106 (Syngenta Crop Protection Muenchwilen, 2012)

experiment: Displacement of [3H]-Tritium-N-(4-chloro-2-methyl-6-(methylcarbamoyl)phenyl)-1-(3-chloropyridin-2-yl)-3-(trifluoromethyl)-1H-pyrazole-5-carboxamide from Myzus persicae (green peach aphid) ryanodine receptor

| SMILES | IC50 |
| --- | --- |
| Cc1cc(Cl)cc(C(=O)NC(C)(C)CS(C)(=O)=NC#N)c1NC(=O)c1cc(C(F)(F)F)nn1-c1ncccc1Cl (stereo unspecified) | 4.86 µM |
| CNC(=O)c1cc(C#N)cc(C)c1NC(=O)c1cc(Br)nn1-c1ncccc1Cl [CYANTRANILIPROLE] | 2.11 µM |
| Cc1cc(C#N)cc(C(=O)NC(C)(C)CS(C)(=N)=O)c1NC(=O)c1cc(Br)nn1-c1ncccc1Cl (stereo unspecified) | 18.5 µM |
| CNC(=O)c1cc(Cl)cc(C)c1NC(=O)c1cc(Br)nn1-c1ncccc1Cl [3-bromo-N-(4-chloro-2-methyl-6-(methylcarbamoyl)phenyl)-1-(3-chloropyridin-2-yl)-1H-pyrazole-5-carboxamide] | 4.13 µM |
| Cc1cc(C(F)(C(F)(F)F)C(F)(F)F)ccc1NC(=O)c1cccc(I)c1C(=O)NC(C)(C)CS(C)(=O)=O [CHEBI:38798] | 83.5 µM |
| Cc1cc(C#N)cc(C(=O)NC(C)(C)CS(C)(=O)=NC#N)c1NC(=O)c1cc(Br)nn1-c1ncccc1Cl (stereo unspecified) | 8.09 µM |
